Measured values published in PMC10051477, “5,8-Dimethyl-9H-carbazole Derivatives Blocking hTopo I Activity and Actin Dynamics” (Pharmaceuticals, 2023).

What was measured:
hTopo I = molecular target: T1, hTopo I (Homo sapiens, UniProt P11387); experiment: hTopo I relaxation assay; format: biochemical; conditions: compound at 1 μM, pHOT1 plasmid, agarose gel
T1 construct: purchased TopoGEN
T1 sequence (P11387 1-765): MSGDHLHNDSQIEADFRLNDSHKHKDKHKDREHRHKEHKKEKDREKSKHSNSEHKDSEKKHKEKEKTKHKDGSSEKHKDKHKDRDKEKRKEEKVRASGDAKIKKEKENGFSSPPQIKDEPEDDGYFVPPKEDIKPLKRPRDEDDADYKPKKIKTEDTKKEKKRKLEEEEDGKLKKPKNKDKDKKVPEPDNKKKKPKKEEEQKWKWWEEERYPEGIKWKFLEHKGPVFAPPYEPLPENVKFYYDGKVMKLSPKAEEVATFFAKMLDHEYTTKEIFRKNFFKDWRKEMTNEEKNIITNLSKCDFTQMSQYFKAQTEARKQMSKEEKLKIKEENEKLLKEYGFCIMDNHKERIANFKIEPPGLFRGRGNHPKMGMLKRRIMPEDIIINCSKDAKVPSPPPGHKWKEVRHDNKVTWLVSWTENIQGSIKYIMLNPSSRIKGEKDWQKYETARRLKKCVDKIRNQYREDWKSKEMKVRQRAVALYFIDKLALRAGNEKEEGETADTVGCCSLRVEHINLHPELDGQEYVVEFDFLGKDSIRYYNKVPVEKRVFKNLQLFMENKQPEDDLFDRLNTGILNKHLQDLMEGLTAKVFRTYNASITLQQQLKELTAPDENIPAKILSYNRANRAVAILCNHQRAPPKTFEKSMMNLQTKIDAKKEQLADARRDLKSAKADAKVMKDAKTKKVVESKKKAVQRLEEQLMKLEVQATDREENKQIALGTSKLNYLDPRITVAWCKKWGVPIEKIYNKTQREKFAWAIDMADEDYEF
Experimental: Indeed, as shown in Figure 3a (lanes 3 and 4), a clear band of the uncut plasmid DNA at the bottom of the gel is present. The uncut plasmid pHOT1, used as marker, is present in Figure 3a, lane 1. On the contrary, in the control reaction (only vehicle, Figure 3a, lane 2), it is possible to observe the presence of multiple bands corresponding to the relaxed plasmid DNA, used as substrate.
hTopo I relaxation assays were performed as indicated in the manufacturer’s protocol (TopoGEN, Port Orange, FL, USA) with some revisions. hTopo I relaxation assays were performed in a final volume of 20 μL: 0.25 μg of supercoiled pHOT1 in TE buffer [TE: 10 mM Tris-HCl (pH 7.5), 1 mM EDTA] was added to a solution containing water, 1× assay buffer (10 mM Tris-HCl (pH 7.9), 1 mM EDTA, 0.5 mM NaCl, 0.1% bovine serum albumin, 0.1 mM spermidine and 5% glycerol) and the tested compounds. The mix was incubated for 15 min at 37 °C. Then, the reaction was initiated by addition of recombinant hTopo I (2 U), incubated at 37 °C for 1 h and terminated by the addition of 5× stop buffer (5% sarkosyl, 25% glycerol, 0.125% bromophenol blue). The aqueous phase was loaded onto a 1% agarose gel containing 1× TAE buffer (diluted from50× buffer containing 242 g Tris base, 57.1 mL glacial acetic acid and 100 mL of 0.5 M EDTA) without ethidium bromide (EB). […]

[1] = system: actin system in MDA-MB-231 cells; experiment: Actin immunofluorescence in MDA-MB-231 cells; format: cell-based, human; conditions: MDA-MB-231, 24 h; compounds at their IC50 values, LA 0.1 µM
Experimental: In order to determine whether the lead compounds 3 and 4 may effectively regulate the actin system, we employed both the immunofluorescence and in vitro direct enzymatic assays. […] As negative and positive controls, we used the only vehicle (DMSO) and latrunculin A (LA) at a concentration of 0.1 µM, respectively. After processing, the cells were observed under a fluorescent microscope, (see experimental section for the details). […] Moreover, the latter looked brighter and stocked in the cytoplasm in dot-like structures or thicker fibers. Again, the MDA-MB-231 cells, under exposure to compounds 3 and 4, lost their shape (Figure 4, compounds 3 and 4, panels B), as we observed under LA treatment, and with a very similar arrangement of the actin network.
The cells were plated and further processed, as previously indicated. Specifically, the rabbit anti-β-Actin (Santa Cruz Biotechnology, Dallas, TX, USA), diluted 1:100 in bovine serum albumin (BSA) 2%, was used as primary antibody and incubated overnight at 4 °C. The secondary antibody, Alexa Fluor® 488 conjugate goat-anti-rabbit, was diluted 1:500 and incubated for 2 h at 37 °C. DAPI (4′,6-diamidino-2-phenylindole, Sigma Aldrich, Milan, Italy) 0.2 μg/mL was used for nuclei staining. A fluorescence microscope (Leica DM 6000) was utilized for fluorescence detection (40× magnification). LAS-X software allowed acquiring and processing all the fluorescence images, which are representative of three separate experiments.

[2] = molecular target: T2, labeled rabbit muscle actin (Oryctolagus cuniculus, UniProt P68135); experiment: In vitro actin polymerization assay; format: biochemical; conditions: 5 µM, 1 h, room temperature; vehicle plateau about 25,000 RFU
T2 construct: fluorescent label (chemical); purchased Abcam; host or cells: rabbit muscle
Description: With the aim to confirm the immunofluorescence results and substantiate whether compounds 3 and 4 could inhibit the actin polymerization mechanism and/or boost the F-actin depolymerization, we employed a fluorescent-labeled purified rabbit actin. LA and cytochalasin B (CB) were used as positive controls for both the polymerization inhibition and F-actin subunits dissociation, or only the polymerization inhibition, respectively. In the negative control reaction (only vehicle), actin monomers undergo a normal polymerization, as visible in Figure 5, panel A. The reaction curve rises in approximately 5 min to a value of about 25,000 RFU (plateau) which remains almost unvaried until the end of the experiment. Contrariwise, the two reference molecules, i.e., LA and CB, used at the concentration of 5 µM, braked the actin polymerization, mostly LA rather than CB, under the adopted experimental conditions, and the LA curve dropped until a value of about 8000 RFU at the reaction end.
An Actin Polymerization/Depolymerization Assay Kit, purchased from Abcam, was employed to assess the ability of compounds 3 and 4 to interfere with the actin polymerization and depolymerization processes. To perform the essays, the manufacturer’s instructions were followed with some modifications. In particular, polymerization assay was carried out incubating in a white 96-well plate the reconstituted actin with supplemented Buffer G, compounds 3 and 4 and then Buffer P was added in order to induce actin polymerization. For the Actin Depolymerization Assay, the actin polymerization was first induced, incubating supplemented Buffers P and G at room temperature for one hour. Then, compounds 3 and 4 were added at a concentration of 5 μM. Latrunculin A (LA) and Cytochalasin B (CB) were utilized as positive control at a concentration of 5 μM. For both the assays, the assemblage of the actin filaments was defined by measuring the fluorescence (Ex/Em: 365/410 nm) in kinetic mode for 1 h at room temperature in a microplate reader.

Inhibition of hTopo I supercoiling relaxing activity (hTopo I) | Actin polymerization, final fluorescence value of reaction curve [2] | Structure (SMILES) | Effect on actin organization (immunofluorescence) [1]
totally inhibited | about 13,000 RFU | Cc1ccc(C)c2c1c1cc(B(O)O)ccc1n2C(=O)OC(C)(C)C [Compound 3] | interfere with the normal actin organization
totally inhibited | around 16,000 RFU | Cc1ccc(C)c2c1c1cc(O)ccc1n2C(=O)OC(C)(C)C [Compound 4] | interfere with the normal actin organization
